In PubChem BioAssay AID2060331 (Molecular Pharmacology Branch, DTP, NCI, 2025):
Several values for one entry are separate records, joined by “and”; a condition that tells them apart may be missing. Equal values may be shown once.

Tested on: Hs578T multi-cell spheroids, viability
Assay: Anticancer human tumor Hs578T cell line growth inhibition [IpAb];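 also: drug exposure lasted 7 days before readout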
Conditions: for viability, T/C: stronger effect = lower value
In short: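 Spheroids of 60% malignant cells, 25% HUVEC and 15% MSC were exposed to targeted agents combined with ipatasertib or abemaciclib. Doses started at or near clinical Cmax (10 microM when unknown) and fell in half-log steps.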

[1] = curve of first compound, second compound 0.1 µM
[2] = curve of first compound, second compound 0.316 µM
[3] = curve of first compound, second compound 1 µM

Work on `CC(=O)c1c(C)c2cnc(Nc3ccc(N4CCNCC4)cn3)nc2n(C2CCCC2)c1=O` + CCN1CCN(Cc2ccc(Nc3ncc(F)c(-c4cc(F)c5nc(C)n(C(C)C)c5c4)n3)nc2)CC1 yielded an IC50 (curve of first compound, second compound 0.01 µM) of over 300 nM, an IC50 (curve of first compound, second compound 0.0316 µM) of over 300 nM and an IC50 [1] of over 300 nM. The IC50 [2] was over 300 nM, the IC50 [3] was over 300 nM and the viability, T/C (second compound 0.01 µM, first compound 0.000949 µM) was 106%. It also gave a viability, T/C (second compound 0.01 µM, first compound 0.003 µM) of 95.1%, a viability, T/C (second compound 0.01 µM, first compound 0.00949 µM) of 95% and a viability, T/C (second compound 0.01 µM, first compound 0.03 µM) of 81.9%. It also gave a viability, T/C (second compound 0.01 µM, first compound 0.0949 µM) of 77.5%, a viability, T/C (second compound 0.01 µM, first compound 0.3 µM) of 63.4% and a viability, T/C (second compound 0.0316 µM, first compound 0.000949 µM) of 91.3%. For the same molecule, the viability, T/C (second compound 0.0316 µM, first compound 0.003 µM) was 89.1%, the viability, T/C (second compound 0.0316 µM, first compound 0.00949 µM) was 90.3% and the viability, T/C (second compound 0.0316 µM, first compound 0.03 µM) was 73.3%. The viability, T/C (second compound 0.0316 µM, first compound 0.0949 µM) was 69.3%, the viability, T/C (second compound 0.0316 µM, first compound 0.3 µM) was 60.5% and the viability, T/C (second compound 0.1 µM, first compound 0.000949 µM) was 75.6%. The viability, T/C (second compound 0.1 µM, first compound 0.003 µM) was 80.8%, the viability, T/C (second compound 0.1 µM, first compound 0.00949 µM) was 81.8% and the viability, T/C (second compound 0.1 µM, first compound 0.03 µM) was 80.8%. It also gave a viability, T/C (second compound 0.1 µM, first compound 0.0949 µM) of 66%, a viability, T/C (second compound 0.1 µM, first compound 0.3 µM) of 73.3% and a viability, T/C (second compound 0.316 µM, first compound 0.000949 µM) of 81.3%. For the same molecule, the viability, T/C (second compound 0.316 µM, first compound 0.003 µM) was 85.2%, the viability, T/C (second compound 0.316 µM, first compound 0.00949 µM) was 82.2% and the viability, T/C (second compound 0.316 µM, first compound 0.03 µM) was 79.8%. The viability, T/C (second compound 0.316 µM, first compound 0.0949 µM) was 70.7%, the viability, T/C (second compound 0.316 µM, first compound 0.3 µM) was 68% and the viability, T/C (second compound 1 µM, first compound 0.000949 µM) was 93%. For the same molecule, the viability, T/C (second compound 1 µM, first compound 0.003 µM) was 98.5%, the viability, T/C (second compound 1 µM, first compound 0.00949 µM) was 93.7% and the viability, T/C (second compound 1 µM, first compound 0.03 µM) was 96.7%. The viability, T/C (second compound 1 µM, first compound 0.0949 µM) was 89.5% and the viability, T/C (second compound 1 µM, first compound 0.3 µM) was 89%.
For `CCCS(=O)(=O)Nc1ccc(F)c(C(=O)c2c[nH]c3ncc(-c4ccc(Cl)cc4)cc23)c1F` + CC(C)NCC(C(=O)N1CCN(c2ncnc3c2C(C)CC3O)CC1)c1ccc(Cl)cc1, the IC50 [1] was 4680 nM, the IC50 [2] was 3600 nM and the IC50 [3] was 3170 nM. For the same molecule, the IC50 (curve of first compound, second compound 3.16 µM) was 1350 nM, the IC50 (curve of first compound, second compound 10 µM) was under 31.6 nM and the viability, T/C (second compound 0.1 µM, first compound 0.0316 µM) was 97.9%. The viability, T/C (second compound 0.1 µM, first compound 0.1 µM) was 95.8%, the viability, T/C (second compound 0.1 µM, first compound 0.316 µM) was 92.3% and the viability, T/C (second compound 0.1 µM, first compound 1 µM) was 89.9%. The viability, T/C (second compound 0.1 µM, first compound 3.16 µM) was 71.2%, the viability, T/C (second compound 0.1 µM, first compound 10 µM) was 9.19% and the viability, T/C (second compound 0.316 µM, first compound 0.0316 µM) was 94.8%. For the same molecule, the viability, T/C (second compound 0.316 µM, first compound 0.1 µM) was 83.4%, the viability, T/C (second compound 0.316 µM, first compound 0.316 µM) was 88.3% and the viability, T/C (second compound 0.316 µM, first compound 1 µM) was 82.6%. For the same molecule, the viability, T/C (second compound 0.316 µM, first compound 3.16 µM) was 55.3%, the viability, T/C (second compound 0.316 µM, first compound 10 µM) was 7.94% and the viability, T/C (second compound 1 µM, first compound 0.0316 µM) was 69.2%. For the same molecule, the viability, T/C (second compound 1 µM, first compound 0.1 µM) was 71.2%, the viability, T/C (second compound 1 µM, first compound 0.316 µM) was 74.1% and the viability, T/C (second compound 1 µM, first compound 1 µM) was 68.1%. For the same molecule, the viability, T/C (second compound 1 µM, first compound 3.16 µM) was 50.1%, the viability, T/C (second compound 1 µM, first compound 10 µM) was 4.41% and the viability, T/C (second compound 3.16 µM, first compound 0.0316 µM) was 56.5%. The viability, T/C (second compound 3.16 µM, first compound 0.1 µM) was 57.8%, the viability, T/C (second compound 3.16 µM, first compound 0.316 µM) was 51% and the viability, T/C (second compound 3.16 µM, first compound 1 µM) was 55.3%. For the same molecule, the viability, T/C (second compound 3.16 µM, first compound 3.16 µM) was 35.8%, the viability, T/C (second compound 3.16 µM, first compound 10 µM) was 2.97% and the viability, T/C (second compound 10 µM, first compound 0.0316 µM) was 48.3%. It also gave a viability, T/C (second compound 10 µM, first compound 0.1 µM) of 45.1%, a viability, T/C (second compound 10 µM, first compound 0.316 µM) of 49.5% and a viability, T/C (second compound 10 µM, first compound 1 µM) of 38.6%. The viability, T/C (second compound 10 µM, first compound 3.16 µM) was 27.5% and the viability, T/C (second compound 10 µM, first compound 10 µM) was 0.51%.
In the case of `CC(C)(C)c1cnc(CSc2cnc(NC(=O)C3CCNCC3)s2)o1`, the viability, T/C (compound 0.00949 µM) is reported as 102% and 104%, the viability, T/C (compound 0.03 µM) is reported as 113% and 114% and the viability, T/C (compound 0.0949 µM) is reported as 122% and 107%. The viability, T/C (compound 0.3 µM) was 4.21% and 2.95%, the viability, T/C (compound 0.949 µM) was 2.73% and 3.15% and the viability, T/C (compound 3 µM) was 2.69% and 3.46%. The IC50 (curve of compound) was 184 nM and 178 nM.
